Test results from the supplement of paper PMC10307832.

Key:
Experiment in all cases: relative viability (nuclei count vs DMSO), 5 days (fraction); higher = more cells survive
Shikonin + Lapatinib = compound: CC(C)=CC[C@@H](O)C1=CC(=O)c2c(O)ccc(O)c2C1=O [Shikonin] + CS(=O)(=O)CCNCc1ccc(-c2ccc3ncnc(Nc4ccc(OCc5cccc(F)c5)c(Cl)c4)c3c2)o1 [Lapatinib] (partner 2 µM)
Summary of the method: (§1)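 The day after seeding in 1536-well plates, lung cancer cell lines were treated by pin tool with a single drug, or with a fixed anchor-drug dose together with five library-drug doses (not always all listed) in √10 steps. After 5 days, a combined fix-and-stain solution (final 0.05% Triton X-100, 1% formaldehyde, 1 ug/ml Hoechst) was added. Nuclei counted on 4× images gave relative viability as treated counts over vehicle counts, reported as the median of duplicate plates.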

Shikonin + Pictilisib = compound: CC(C)=CC[C@@H](O)C1=CC(=O)c2c(O)ccc(O)c2C1=O [Shikonin] + CS(=O)(=O)N1CCN(Cc2cc3nc(-c4cccc5[nH]ncc45)nc(N4CCOCC4)c3s2)CC1 [Pictilisib] (partner 1 µM)
Summary of the method: as §1

[1] = compound: CC(C)N(CCCNC(=O)Nc1ccc(C(C)(C)C)cc1)C[C@H]1O[C@@H](n2ccc3c(N)ncnc32)[C@H](O)[C@@H]1O + CS(=O)(=O)CCNCc1ccc(-c2ccc3ncnc(Nc4ccc(OCc5cccc(F)c5)c(Cl)c4)c3c2)o1 [Lapatinib] (partner 2 µM)
Summary of the method: as §1

[2] = compound: CC(C)N(CCCNC(=O)Nc1ccc(C(C)(C)C)cc1)C[C@H]1O[C@@H](n2ccc3c(N)ncnc32)[C@H](O)[C@@H]1O + Cc1nc(NC(=O)N2CCC[C@H]2C(N)=O)sc1-c1ccnc(C(C)(C)C(F)(F)F)c1 [Alpelisib] (partner 2 µM)
Summary of the method: as §1

Row | Cell Line | relative viability (Shikonin + Lapatinib; first compound 0.01 µM) | relative viability (Shikonin + Lapatinib; first compound 0.1 µM) | relative viability (Shikonin + Lapatinib; first compound 0.3162 µM) | relative viability (Shikonin + Lapatinib; first compound 1 µM) | relative viability (Shikonin + Pictilisib; first compound 0.01 µM) | relative viability (Shikonin + Pictilisib; first compound 0.3162 µM) | relative viability (Shikonin + Pictilisib; first compound 1 µM) | relative viability ([1]; first compound 0.08 µM) | relative viability ([1]; first compound 0.253 µM) | relative viability ([1]; first compound 0.8 µM) | relative viability ([1]; first compound 2.53 µM) | relative viability ([1]; first compound 8 µM) | relative viability ([2]; first compound 0.08 µM) | relative viability ([2]; first compound 0.253 µM) | relative viability ([2]; first compound 0.8 µM) | relative viability ([2]; first compound 2.53 µM) | relative viability ([2]; first compound 8 µM) | relative viability (Shikonin + Pictilisib; first compound 0.1 µM)
1 | PC-14 | 0.334 | 0.342 | 0.329 | 0.326 | 0.817 | 0.641 | 0.68 | 0.287 | 0.284 | 0.355 | 0.332 | 0.316 | 0.883 | 0.818 | 0.988 | 0.964 | 0.794 | 
2 | NCI-H460 | 1.32 | 1.51 | 0.951 | 1.12 | 0.357 | 0.357 | 0.375 | 0.835 | 0.983 | 0.829 | 0.971 | 0.855 | 0.378 | 0.582 | 0.442 | 0.301 | 0.396 | 0.441
3 | LOU-NH91 | 0.802 | 0.839 | 0.811 | 0.823 | 0.509 | 0.52 | 0.563 | 0.643 | 0.731 |  | 0.83 | 0.773 | 0.631 | 0.679 |  | 0.753 | 0.663 | 0.544
4 | NCI-H322M | 0.582 | 0.595 | 0.585 | 0.566 | 0.498 | 0.496 | 0.504 | 0.536 | 0.591 | 0.607 | 0.564 | 0.607 | 0.732 | 0.775 | 0.766 | 0.829 | 0.829 | 0.526
5 | NCI-H596 | 1.19 | 1.02 | 1.15 | 0.98 | 0.341 | 0.422 | 0.4 | 1.17 | 0.946 | 0.971 | 1.08 | 1.06 | 0.567 | 0.42 | 0.54 | 0.434 | 0.482 | 0.385
6 | NCI-H727 | 0.923 | 0.96 | 0.745 | 0.604 | 0.326 | 0.311 | 0.431 | 0.922 | 0.821 | 0.804 | 0.973 | 0.686 | 0.448 | 0.511 | 0.612 | 0.547 | 0.673 | 0.353
7 | NCI-H838 | 1.02 | 1.03 | 0.979 | 0.996 | 0.529 | 0.443 | 0.452 | 0.869 | 0.521 | 0.953 | 0.938 | 0.916 | 0.983 | 0.804 | 1.04 | 1.03 | 0.99 | 0.601
8 | NCI-H1793 | 0.637 | 0.786 | 0.742 | 0.648 | 0.359 | 0.241 | 0.304 | 0.607 |  | 0.554 | 0.599 | 0.636 | 0.554 |  | 0.715 | 0.527 | 0.669 | 0.251
9 | NCI-H1734 | 1.17 | 1.25 | 1.02 | 1.09 | 0.495 | 0.441 | 0.494 | 0.987 | 1.06 | 0.976 | 1.13 | 0.995 | 0.665 | 0.665 | 0.636 | 0.723 | 0.713 | 0.551
10 | LXF-289 | 0.959 | 1 | 0.906 | 0.945 | 0.868 | 0.799 | 0.775 | 0.867 | 0.956 | 0.863 | 0.943 | 0.821 | 1.01 | 1.05 | 1.07 | 1.09 | 1.04 | 0.784
11 | H3255 | 0.206 | 0.258 | 0.215 | 0.271 | 0.487 | 0.495 | 0.427 | 0.242 | 0.255 | 0.231 | 0.253 | 0.216 | 0.93 | 0.711 | 0.662 | 0.714 | 0.665 | 0.477
12 | 201T | 1.05 | 1.12 | 1.02 | 1.05 | 0.621 | 0.669 | 0.796 | 0.99 | 1.07 | 0.863 | 1.02 | 1.01 | 1 | 1.03 | 1.02 | 0.98 | 0.962 | 0.754
13 | NCI-H2228 | 0.913 | 0.902 | 0.921 | 0.83 | 0.344 | 0.465 | 0.252 | 0.971 |  | 1.06 | 0.949 | 0.984 | 0.782 |  | 0.796 | 0.76 | 0.745 | 0.438
14 | HOP-62 | 1.04 | 1.13 | 0.908 | 1.03 | 0.714 | 0.933 | 0.62 | 1.02 | 0.797 | 0.858 | 0.958 | 0.764 | 0.997 | 1.16 | 0.912 | 0.971 | 0.909 | 1.09
15 | CAL-12T | 0.636 | 0.632 | 0.649 | 0.638 | 0.368 | 0.35 | 0.414 | 0.61 | 0.477 | 0.572 | 0.625 | 0.652 | 1.02 | 1.32 | 1.26 | 1 | 1 | 0.409
16 | NCI-H647 | 1.16 | 1.17 | 1.35 | 0.88 | 0.458 | 0.441 | 0.573 | 0.961 |  | 0.856 | 0.983 | 0.933 | 1.14 |  | 1.08 | 1.05 | 1.25 | 0.552
17 | NCI-H1755 | 1.13 | 1.27 | 1.12 | 1.09 | 0.468 | 0.406 | 0.472 | 1.02 | 1.06 | 0.841 | 0.979 | 0.944 | 0.891 | 0.929 | 0.905 | 0.882 | 0.84 | 0.472
18 | NCI-H2085 | 0.767 | 0.727 | 0.718 | 0.774 | 0.41 | 0.424 | 0.411 | 0.782 | 0.681 | 0.747 | 0.858 | 0.798 | 0.969 | 0.978 | 1.05 | 0.972 | 0.913 | 0.47
